Data: patent EP1611892A2, “Pharmaceutical compositions comprising drospirenone” (Schering Aktiengesellschaft, priority 2000, dated 2001)

How the values were obtained:
Type in all cases: physicochemical
[1] = Solubility in water and aqueous buffers; conditions: in water and aqueous buffers at various pH values
[2] = Chemical stability under acid and alkaline conditions
[3] = In vitro dissolution from a tablet preparation (USP XXIII Paddle Method); conditions: drospirenone in micronized form; rapid dissolution defined as at least 70% over about 30 minutes from a 3 mg tablet in 900 ml of water at 37°C, 50 rpm

solubility [1]: sparingly soluble | stability under acid conditions ([2]; acid conditions): rearranged to an inactive isomer | stability under alkaline conditions ([2]; alkaline conditions): hydrolysed | dissolution of the active compound from the composition in vitro [3]: rapid dissolution
Compound: C[C@]12CCC(=O)C=C1[C@@H]1C[C@@H]1[C@H]1[C@@H]3[C@@H]4C[C@@H]4[C@@]4(CCC(=O)O4)[C@@]3(C)CC[C@@H]12 [drospirenone, 6β,7β;15β;16β-dimethylene-3-oxo-17α-preg-4-ene-21,17-carbolactone]
